Values of other authors in patent EP0859828B2, “DELIVERY SYSTEMS” (THE PROCTER & GAMBLE COMPANY, priority 1995, dated 1997).

Settings: 25°C; cobalt pentaamine catalysts complexed with the named ligand

CC(=O)O [acetate]
base hydrolysis rates (kOH): 0.00096 M⁻¹ s⁻¹

oxalate
base hydrolysis rates (kOH): 0.00025 M⁻¹ s⁻¹
